Patent publication US20260297081A1, “COMPOUNDS AND METHODS OF TREATING CANCERS” (Cullgen Inc., priority 2023, published 2026)

Target: CDK4 (Homo sapiens, UniProt P11802+Q16531)
Test: HiBiT detection of HiBiT-tagged CDK4 protein level in MCF7 cells, 16 hours (Table 8)
Type: cell-based
Design: expressed in transfected cells; host or cells: MCF7
Conditions: MCF7 cells stably expressing HiBiT tagged target proteins; for activity at 0.01 µM: 10 nM, read-out: % CDK4 Relative Level (10 nM); for activity at 0.1 µM: 100 nM, read-out: % CDK4 Relative Level (100 nM)
Method: HiBiT detection system quantitatively measures total amounts of HiBiT-tagged proteins using a luminescent based method. MCF7 cells stably expressing HiBiT tagged target proteins were treated with heterobifunctional compounds at indicated concentrations for 16 hours, then lysed with Nano-Glo HiBiT Lytic detection reagents.

CDK4, sequence (P11802 whole entry): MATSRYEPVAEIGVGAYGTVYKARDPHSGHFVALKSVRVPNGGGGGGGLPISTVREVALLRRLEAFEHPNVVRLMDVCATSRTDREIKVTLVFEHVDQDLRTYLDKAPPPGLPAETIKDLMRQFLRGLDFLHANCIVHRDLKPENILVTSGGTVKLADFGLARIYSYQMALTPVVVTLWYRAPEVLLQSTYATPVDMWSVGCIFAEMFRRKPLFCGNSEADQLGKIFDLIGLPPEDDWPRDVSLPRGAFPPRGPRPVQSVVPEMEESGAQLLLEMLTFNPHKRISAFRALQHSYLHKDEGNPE
CDK4, sequence (P24385 whole entry partner): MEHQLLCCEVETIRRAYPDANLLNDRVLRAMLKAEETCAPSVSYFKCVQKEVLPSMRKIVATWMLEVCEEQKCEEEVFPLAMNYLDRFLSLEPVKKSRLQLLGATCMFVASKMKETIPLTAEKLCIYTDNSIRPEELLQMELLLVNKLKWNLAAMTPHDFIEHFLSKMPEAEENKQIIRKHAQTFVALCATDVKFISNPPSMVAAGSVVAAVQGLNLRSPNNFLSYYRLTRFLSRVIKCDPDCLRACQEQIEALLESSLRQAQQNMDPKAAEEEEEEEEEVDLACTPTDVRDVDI
CDK4, sequence (Q16531 2-1140 limits assumed): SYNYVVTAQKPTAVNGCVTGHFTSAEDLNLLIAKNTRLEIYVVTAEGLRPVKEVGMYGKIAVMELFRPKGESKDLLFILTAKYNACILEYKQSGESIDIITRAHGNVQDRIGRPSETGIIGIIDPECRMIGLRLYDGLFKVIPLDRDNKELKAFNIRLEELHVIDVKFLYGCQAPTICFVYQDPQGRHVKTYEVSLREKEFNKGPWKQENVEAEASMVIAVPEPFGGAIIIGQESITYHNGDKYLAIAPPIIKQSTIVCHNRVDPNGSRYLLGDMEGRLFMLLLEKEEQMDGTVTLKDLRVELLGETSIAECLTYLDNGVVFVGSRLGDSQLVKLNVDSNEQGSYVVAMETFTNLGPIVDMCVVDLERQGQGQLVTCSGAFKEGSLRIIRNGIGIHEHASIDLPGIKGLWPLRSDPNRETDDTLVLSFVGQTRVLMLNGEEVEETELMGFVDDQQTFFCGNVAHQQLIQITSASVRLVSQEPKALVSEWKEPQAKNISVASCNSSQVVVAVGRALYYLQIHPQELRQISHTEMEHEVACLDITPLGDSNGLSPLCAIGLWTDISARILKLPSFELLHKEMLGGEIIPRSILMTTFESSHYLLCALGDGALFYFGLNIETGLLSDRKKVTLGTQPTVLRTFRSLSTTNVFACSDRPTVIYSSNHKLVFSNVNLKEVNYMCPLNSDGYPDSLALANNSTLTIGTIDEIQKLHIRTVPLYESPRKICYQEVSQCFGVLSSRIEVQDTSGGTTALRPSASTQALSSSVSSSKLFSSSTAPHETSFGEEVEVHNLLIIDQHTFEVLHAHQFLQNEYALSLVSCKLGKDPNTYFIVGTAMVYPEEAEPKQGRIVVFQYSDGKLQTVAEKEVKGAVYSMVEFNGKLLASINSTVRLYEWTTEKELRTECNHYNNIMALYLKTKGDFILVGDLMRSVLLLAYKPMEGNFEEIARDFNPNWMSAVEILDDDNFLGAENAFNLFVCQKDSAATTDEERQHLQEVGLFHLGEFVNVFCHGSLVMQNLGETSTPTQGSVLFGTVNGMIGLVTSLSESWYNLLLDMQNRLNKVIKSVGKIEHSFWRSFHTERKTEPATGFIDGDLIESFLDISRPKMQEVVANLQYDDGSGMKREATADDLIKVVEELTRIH

SMILES	activity at 0.01 µM [%]	activity at 0.1 µM [%]
CNc1ccc(C(=O)Nc2ccc(N(C)C)nn2)c(NCCCCNC(=O)CN2CCN(Cc3ccc(Nc4ncc(F)c(-c5cc(F)c6nc(C)n(C(C)C)c6c5)n4)nc3)CC2)n1 [CPD-610, N-(6-(dimethylamino)pyridazin-3-yl)-2-((4-(2-(4-((6-((5-fluoro-4-(4-fluoro-1-isopropyl-2-methyl-1H-benzo[d]imidazol-6-yl)pyrimidin-2-yl)amino)pyridin-3-yl)methyl)piperazin-1-yl)acetamido)butyl)amino)-6-(methylamino)nicotinamide]	> 85	> 85
CNc1ccc(C(=O)Nc2ccc(N(C)C)nn2)c(NCCCCCNC(=O)CN2CCN(Cc3ccc(Nc4ncc(F)c(-c5cc(F)c6nc(C)n(C(C)C)c6c5)n4)nc3)CC2)n1 [CPD-611, N-(6-(dimethylamino)pyridazin-3-yl)-2-((5-(2-(4-((6-((5-fluoro-4-(4-fluoro-1-isopropyl-2-methyl-1H-benzo[d]imidazol-6-yl)pyrimidin-2-yl)amino)pyridin-3-yl)methyl)piperazin-1-yl)acetamido)pentyl)amino)-6-(methylamino)nicotinamide]	> 85	> 85
CNc1ccc(C(=O)Nc2ccc(N(C)C)nn2)c(NCCCCCCNC(=O)CN2CCN(Cc3ccc(Nc4ncc(F)c(-c5cc(F)c6nc(C)n(C(C)C)c6c5)n4)nc3)CC2)n1 [CPD-612, N-(6-(dimethylamino)pyridazin-3-yl)-2-((6-(2-(4-((6-((5-fluoro-4-(4-fluoro-1-isopropyl-2-methyl-1H-benzo[d]imidazol-6-yl)pyrimidin-2-yl)amino)pyridin-3-yl)methyl)piperazin-1-yl)acetamido)hexyl)amino)-6-(methylamino)nicotinamide]	> 85	> 85
CNc1ccc(C(=O)Nc2ccc(N(C)C)nn2)c(NCCCCCCCNC(=O)CN2CCN(Cc3ccc(Nc4ncc(F)c(-c5cc(F)c6nc(C)n(C(C)C)c6c5)n4)nc3)CC2)n1 [CPD-613, N-(6-(dimethylamino)pyridazin-3-yl)-2-((7-(2-(4-((6-((5-fluoro-4-(4-fluoro-1-isopropyl-2-methyl-1H-benzo[d]imidazol-6-yl)pyrimidin-2-yl)amino)pyridin-3-yl)methyl)piperazin-1-yl)acetamido)heptyl)amino)-6-(methylamino)nicotinamide]	> 85	> 85
CNc1ccc(C(=O)Nc2ccc(N(C)C)nn2)c(NCCCCCCCCNC(=O)CN2CCN(Cc3ccc(Nc4ncc(F)c(-c5cc(F)c6nc(C)n(C(C)C)c6c5)n4)nc3)CC2)n1 [CPD-614, N-(6-(dimethylamino)pyridazin-3-yl)-2-((8-(2-(4-((6-((5-fluoro-4-(4-fluoro-1-isopropyl-2-methyl-1H-benzo[d]imidazol-6-yl)pyrimidin-2-yl)amino)pyridin-3-yl)methyl)piperazin-1-yl)acetamido)octyl)amino)-6-(methylamino)nicotinamide]	> 85	> 85
CNc1ccc(C(=O)Nc2ccc(N(C)C)nn2)c(NCCOCCNC(=O)CN2CCN(Cc3ccc(Nc4ncc(F)c(-c5cc(F)c6nc(C)n(C(C)C)c6c5)n4)nc3)CC2)n1 [CPD-615, N-(6-(dimethylamino)pyridazin-3-yl)-2-((2-(2-(2-(4-((6-((5-fluoro-4-(4-fluoro-1-isopropyl-2-methyl-1H-benzo[d]imidazol-6-yl)pyrimidin-2-yl)amino)pyridin-3-yl)methyl)piperazin-1-yl)acetamido)ethoxy)ethyl)amino)-6-(methylamino)nicotinamide]	> 85	> 85
CNc1ccc(C(=O)Nc2ccc(N(C)C)nn2)c(NCCOCCOCCC(=O)N2CCN(c3ccc(Nc4ncc5cc(C(=O)N(C)C)n(C6CCCC6)c5n4)nc3)CC2)n1 [CPD-623, 7-cyclopentyl-2-((5-(4-(3-(2-(2-((3-((6-(dimethylamino)pyridazin-3-yl)carbamoyl)-6-(methylamino)pyridin-2-yl)amino)ethoxy)ethoxy)propanoyl)piperazin-1-yl)pyridin-2-yl)amino)-N,N-dimethyl-7H-pyrrolo[2,3-d]pyrimidine-6-carboxamide]	> 85	> 85
CNc1ccc(C(=O)Nc2ccc(N(C)C)nn2)c(NCCNC(=O)CN2CCN(c3ccc(Nc4ncc5cc(C(=O)N(C)C)n(C6CCCC6)c5n4)nc3)CC2)n1 [CPD-624, 7-cyclopentyl-2-((5-(4-(2-((2-((3-((6-(dimethylamino)pyridazin-3-yl)carbamoyl)-6-(methylamino)pyridin-2-yl)amino)ethyl)amino)-2-oxoethyl)piperazin-1-yl)pyridin-2-yl)amino)-N,N-dimethyl-7H-pyrrolo[2,3-d]pyrimidine-6-carboxamide]	55 to 85	55 to 85
CNc1ccc(C(=O)Nc2ccc(N(C)C)nn2)c(NCCOCCNC(=O)CN2CCN(c3ccc(Nc4ncc5cc(C(=O)N(C)C)n(C6CCCC6)c5n4)nc3)CC2)n1 [CPD-631, 7-cyclopentyl-2-((5-(4-(2-((2-(2-((3-((6-(dimethylamino)pyridazin-3-yl)carbamoyl)-6-(methylamino)pyridin-2-yl)amino)ethoxy)ethyl)amino)-2-oxoethyl)piperazin-1-yl)pyridin-2-yl)amino)-N,N-dimethyl-7H-pyrrolo[2,3-d]pyrimidine-6-carboxamide]	> 85	> 85
CNc1ccc(C(=O)Nc2ccc(N(C)C)nn2)c(NCCC(=O)N2CCN(c3ccc(Nc4ncc5cc6n(c5n4)C4(CCCCC4)CNC6=O)nc3)CC2)n1 [CPD-632, N-(6-(dimethylamino)pyridazin-3-yl)-6-(methylamino)-2-((3-oxo-3-(4-(6-((6′-oxo-7′,8′-dihydro-6′H-spiro[cyclohexane-1,9′-pyrazino[1′,2′:1,5]pyrrolo[2,3-d]pyrimidin]-2′-yl)amino)pyridin-3-yl)piperazin-1-yl)propyl)amino)nicotinamide]	> 85	> 85
CNc1ccc(C(=O)Nc2ccc(N(C)C)nn2)c(NCCCCCCCC(=O)N2CCN(c3ccc(Nc4ncc5cc6n(c5n4)C4(CCCCC4)CNC6=O)nc3)CC2)n1 [CPD-637, N-(6-(dimethylamino)pyridazin-3-yl)-6-(methylamino)-2-((8-oxo-8-(4-(6-((6′-oxo-7′,8′-dihydro-6′H-spiro[cyclohexane-1,9′-pyrazino[1′,2′:1,5]pyrrolo[2,3-d]pyrimidin]-2′-yl)amino)pyridin-3-yl)piperazin-1-yl)octyl)amino)nicotinamide]	> 85	> 85
CNc1ccc(C(=O)Nc2ccc(N(C)C)nn2)c(NCCOCCC(=O)N2CCN(c3ccc(Nc4ncc5cc6n(c5n4)C4(CCCCC4)CNC6=O)nc3)CC2)n1 [CPD-638]	> 85	> 85
CNc1ccc(C(=O)Nc2ccc(N(C)C)nn2)c(NCCNC(=O)CN2CCN(c3ccc(Nc4ncc5cc6n(c5n4)C4(CCCCC4)CNC6=O)nc3)CC2)n1 [CPD-640, N-(6-(dimethylamino)pyridazin-3-yl)-6-(methylamino)-2-((2-(2-(4-(6-((6′-oxo-7′,8′-dihydro-6′H-spiro[cyclohexane-1,9′-pyrazino[1′,2′:1,5]pyrrolo[2,3-d]pyrimidin]-2′-yl)amino)pyridin-3-yl)piperazin-1-yl)acetamido)ethyl)amino)nicotinamide]	> 85	55 to 85
CNc1ccc(C(=O)Nc2ccc(N(C)C)nn2)c(NCCCNC(=O)CN2CCN(c3ccc(Nc4ncc5cc6n(c5n4)C4(CCCCC4)CNC6=O)nc3)CC2)n1 [CPD-641, N-(6-(dimethylamino)pyridazin-3-yl)-6-(methylamino)-2-((3-(2-(4-(6-((6′-oxo-7′,8′-dihydro-6′H-spiro[cyclohexane-1,9′-pyrazino[1′,2′:1,5]pyrrolo[2,3-d]pyrimidin]-2′-yl)amino)pyridin-3-yl)piperazin-1-yl)acetamido)propyl)amino)nicotinamide]	> 85	> 85
CNc1ccc(C(=O)Nc2ccc(N(C)C)nn2)c(NCCOCCNC(=O)CN2CCN(c3ccc(Nc4ncc5cc6n(c5n4)C4(CCCCC4)CNC6=O)nc3)CC2)n1 [CPD-647, N-(6-(dimethylamino)pyridazin-3-yl)-6-(methylamino)-2-((2-(2-(2-(4-(6-((6′-oxo-7′,8′-dihydro-6′H-spiro[cyclohexane-1,9′-pyrazino[1′,2′:1,5]pyrrolo[2,3-d]pyrimidin]-2′-yl)amino)pyridin-3-yl)piperazin-1-yl)acetamido)ethoxy)ethyl)amino)nicotinamide]	> 85	> 85
CNc1ccc(C(=O)Nc2ccc(N(C)C)nn2)c(NCCC(=O)N2CCN(c3ccc(Nc4ncc(F)c(-c5cc(F)c6nc(C)n(C(C)C)c6c5)n4)nc3)CC2)n1 [CPD-648, N-(6-(dimethylamino)pyridazin-3-yl)-2-((3-(4-(6-((5-fluoro-4-(4-fluoro-1-isopropyl-2-methyl-1H-benzo[d]imidazol-6-yl)pyrimidin-2-yl)amino)pyridin-3-yl)piperazin-1-yl)-3-oxopropyl)amino)-6-(methylamino)nicotinamide]	> 85	> 85
CNc1ccc(C(=O)Nc2ccc(N(C)C)nn2)c(NCCCC(=O)N2CCN(c3ccc(Nc4ncc(F)c(-c5cc(F)c6nc(C)n(C(C)C)c6c5)n4)nc3)CC2)n1 [CPD-649, N-(6-(dimethylamino)pyridazin-3-yl)-2-((4-(4-(6-((5-fluoro-4-(4-fluoro-1-isopropyl-2-methyl-1H-benzo[d]imidazol-6-yl)pyrimidin-2-yl)amino)pyridin-3-yl)piperazin-1-yl)-4-oxobutyl)amino)-6-(methylamino)nicotinamide]	> 85	> 85
